The test addresses Calcitonin gene-related peptide receptor (Callithrix jacchus). Briefly: Affinity against calcitonin gene related peptide receptor (1 uM) in marmoset tissue homogenates using [125I]CGRP as radioligand after 180 minutes of incubation at pH 7.40. The conditions noted are these: pH 7.4.

Take `NCCCC[C@@H](NC(=O)[C@H](Cc1cc(Br)c(O)c(Br)c1)NC(=O)N1CCC(n2c(=O)[nH]c3ccccc32)CC1)C(=O)N1CCN(c2ccncc2)CC1` [4-(2-Oxo-2,3-dihydro-benzoimidazol-1-yl)-piperidine-1-carboxylic acid [(S)-1-[(R)-5-amino-1-(4-pyridin-4-yl-piperazine-1-carbonyl)-pentylcarbamoyl]-2-(3,5-dibromo-4-hydroxy-phenyl)-ethyl]-amide]: the IC50 was 2.7 nM.

Broadly, the IC50 is the midpoint of a concentration-inhibition curve.

For the origin of these results see BindingDB's records for doi:10.1021/jm0490641 (Boehringer Ingelheim Pharma, 2005).
